{"source": "patent US9271993B2", "about": "“Treatment of bacterial infectious diseases” (priority 2010, dated 2016)", "key": {"[1]": {"system": "clinical isolates of M. tuberculosis", "format": "cell-based"}, "[2]": {"system": "clinical isolates of multidrug-resistant M. tuberculosis"}}, "note": "Where two headings read alike, the source gives them in different places.", "data": [{"molecule": "NCC[C@H](O)C(=O)N[C@@H]1C[C@H](N)[C@@H](O[C@H]2O[C@H](CN)[C@@H](O)[C@H](O)[C@H]2O)[C@H](O)[C@H]1O[C@H]1O[C@H](CO)[C@@H](O)[C@H](N)[C@H]1O", "note": "[Amikacin]", "values": [{"measurement": "Activity (resistant/susceptible)", "setting": "[1]; strain 176949/08, 0.25 μg/ml", "value": "R"}, {"measurement": "Activity (resistant/susceptible)", "setting": "[1]; strain 176949/08, 1 μg/ml", "value": "S"}, {"measurement": "Activity (resistant/susceptible)", "setting": "[1]; strain 176949/08, 4 μg/ml", "value": "S"}, {"measurement": "Activity (resistant/susceptible)", "setting": "[1]; strain 177581/08, 0.25 μg/ml", "value": "R"}, {"measurement": "Activity (resistant/susceptible)", "setting": "[1]; strain 177581/08, 1 μg/ml", "value": "S"}, {"measurement": "Activity (resistant/susceptible)", "setting": "[1]; strain 177581/08, 4 μg/ml", "value": "S"}, {"measurement": "Activity (resistant/susceptible)", "setting": "[1]; strain 177958/08, 0.25 μg/ml", "value": "R"}, {"measurement": "Activity (resistant/susceptible)", "setting": "[1]; strain 177958/08, 1 μg/ml", "value": "S"}, {"measurement": "Activity (resistant/susceptible)", "setting": "[1]; strain 177958/08, 4 μg/ml", "value": "S"}, {"measurement": "Activity (resistant/susceptible)", "setting": "[1]; strain 178331/08, 0.25 μg/ml", "value": "R"}, {"measurement": "Activity (resistant/susceptible)", "setting": "[1]; strain 178331/08, 1 μg/ml", "value": "S"}, {"measurement": "Activity (resistant/susceptible)", "setting": "[1]; strain 178331/08, 4 μg/ml", "value": "S"}, {"measurement": "Activity (resistant/susceptible)", "setting": "[1]; strain 178557/08, 0.25 μg/ml", "value": "R"}, {"measurement": "Activity (resistant/susceptible)", "setting": "[1]; strain 178557/08, 1 μg/ml", "value": "S"}, {"measurement": "Activity (resistant/susceptible)", "setting": "[1]; strain 178557/08, 4 μg/ml", "value": "S"}]}, {"molecule": "CNC1C(OC2OC(CO)C(N)C(O)C2O)OC2CC(N)C(OC3C(N)CC(N)C(O)C3O)OC2C1O", "note": "(centres unmarked) [Apramycin]", "values": [{"measurement": "Activity (resistant/susceptible)", "setting": "[1]; strain 176949/08, 0.25 μg/ml", "value": "R"}, {"measurement": "Activity (resistant/susceptible)", "setting": "[1]; strain 176949/08, 1 μg/ml", "value": "S"}, {"measurement": "Activity (resistant/susceptible)", "setting": "[1]; strain 176949/08, 4 μg/ml", "value": "S"}, {"measurement": "Activity (resistant/susceptible)", "setting": "[1]; strain 177581/08, 0.25 μg/ml", "value": "R"}, {"measurement": "Activity (resistant/susceptible)", "setting": "[1]; strain 177581/08, 1 μg/ml", "value": "S"}, {"measurement": "Activity (resistant/susceptible)", "setting": "[1]; strain 177581/08, 4 μg/ml", "value": "S"}, {"measurement": "Activity (resistant/susceptible)", "setting": "[1]; strain 177712/08, 0.25 μg/ml", "value": "R"}, {"measurement": "Activity (resistant/susceptible)", "setting": "[1]; strain 177712/08, 1 μg/ml", "value": "S"}, {"measurement": "Activity (resistant/susceptible)", "setting": "[1]; strain 177712/08, 4 μg/ml", "value": "S"}, {"measurement": "Activity (resistant/susceptible)", "setting": "[1]; strain 177809/08, 0.25 μg/ml", "value": "R"}, {"measurement": "Activity (resistant/susceptible)", "setting": "[1]; strain 177809/08, 1 μg/ml", "value": "S"}, {"measurement": "Activity (resistant/susceptible)", "setting": "[1]; strain 177809/08, 4 μg/ml", "value": "S"}, {"measurement": "Activity (resistant/susceptible)", "setting": "[1]; strain 177958/08, 0.25 μg/ml", "value": "R"}, {"measurement": "Activity (resistant/susceptible)", "setting": "[1]; strain 177958/08, 1 μg/ml", "value": "S"}, {"measurement": "Activity (resistant/susceptible)", "setting": "[1]; strain 177958/08, 4 μg/ml", "value": "S"}, {"measurement": "Activity (resistant/susceptible)", "setting": "[1]; strain 178122/08, 0.25 μg/ml", "value": "R"}, {"measurement": "Activity (resistant/susceptible)", "setting": "[1]; strain 178122/08, 1 μg/ml", "value": "S"}, {"measurement": "Activity (resistant/susceptible)", "setting": "[1]; strain 178122/08, 4 μg/ml", "value": "S"}, {"measurement": "Activity (resistant/susceptible)", "setting": "[1]; strain 178242/08, 0.25 μg/ml", "value": "R"}, {"measurement": "Activity (resistant/susceptible)", "setting": "[1]; strain 178242/08, 1 μg/ml", "value": "S"}, {"measurement": "Activity (resistant/susceptible)", "setting": "[1]; strain 178242/08, 4 μg/ml", "value": "S"}, {"measurement": "Activity (resistant/susceptible)", "setting": "[1]; strain 178331/08, 0.25 μg/ml", "value": "R"}, {"measurement": "Activity (resistant/susceptible)", "setting": "[1]; strain 178331/08, 1 μg/ml", "value": "S"}, {"measurement": "Activity (resistant/susceptible)", "setting": "[1]; strain 178331/08, 4 μg/ml", "value": "S"}, {"measurement": "Activity (resistant/susceptible)", "setting": "[1]; strain 178557/08, 0.25 μg/ml", "value": "R"}, {"measurement": "Activity (resistant/susceptible)", "setting": "[1]; strain 178557/08, 1 μg/ml", "value": "S"}, {"measurement": "Activity (resistant/susceptible)", "setting": "[1]; strain 178557/08, 4 μg/ml", "value": "S"}, {"measurement": "Activity (resistant/susceptible)", "setting": "[1]; strain 178594/08, 0.25 μg/ml", "value": "R"}, {"measurement": "Activity (resistant/susceptible)", "setting": "[1]; strain 178594/08, 1 μg/ml", "value": "S"}, {"measurement": "Activity (resistant/susceptible)", "setting": "[1]; strain 178594/08, 4 μg/ml", "value": "S"}, {"measurement": "Activity (resistant/susceptible)", "setting": "[2]; strain 186002/10, 0.25 μg/ml", "value": "R"}, {"measurement": "Activity (resistant/susceptible)", "setting": "[2]; strain 186002/10, 1 μg/ml", "value": "S"}, {"measurement": "Activity (resistant/susceptible)", "setting": "[2]; strain 186002/10, 4 μg/ml", "value": "S"}, {"measurement": "Activity (resistant/susceptible)", "setting": "[2]; strain 186002/10, 10 μg/ml", "value": "S"}, {"measurement": "Activity (resistant/susceptible)", "setting": "[2]; strain 186005/09, 0.25 μg/ml", "value": "R"}, {"measurement": "Activity (resistant/susceptible)", "setting": "[2]; strain 186005/09, 1 μg/ml", "value": "S"}, {"measurement": "Activity (resistant/susceptible)", "setting": "[2]; strain 186005/09, 4 μg/ml", "value": "S"}, {"measurement": "Activity (resistant/susceptible)", "setting": "[2]; strain 186005/09, 10 μg/ml", "value": "S"}, {"measurement": "Activity (resistant/susceptible)", "setting": "[2]; strain 186010/09, 0.25 μg/ml", "value": "R"}, {"measurement": "Activity (resistant/susceptible)", "setting": "[2]; strain 186010/09, 1 μg/ml", "value": "S"}, {"measurement": "Activity (resistant/susceptible)", "setting": "[2]; strain 186010/09, 4 μg/ml", "value": "S"}, {"measurement": "Activity (resistant/susceptible)", "setting": "[2]; strain 186010/09, 10 μg/ml", "value": "S"}, {"measurement": "Activity (resistant/susceptible)", "setting": "[2]; strain 186013/09, 0.25 μg/ml", "value": "R"}, {"measurement": "Activity (resistant/susceptible)", "setting": "[2]; strain 186013/09, 1 μg/ml", "value": "S"}, {"measurement": "Activity (resistant/susceptible)", "setting": "[2]; strain 186013/09, 4 μg/ml", "value": "S"}, {"measurement": "Activity (resistant/susceptible)", "setting": "[2]; strain 186013/09, 10 μg/ml", "value": "S"}, {"measurement": "Activity (resistant/susceptible)", "setting": "[2]; strain 186014/09, 0.25 μg/ml", "value": "R"}, {"measurement": "Activity (resistant/susceptible)", "setting": "[2]; strain 186014/09, 1 μg/ml", "value": "S"}, {"measurement": "Activity (resistant/susceptible)", "setting": "[2]; strain 186014/09, 4 μg/ml", "value": "S"}, {"measurement": "Activity (resistant/susceptible)", "setting": "[2]; strain 186014/09, 10 μg/ml", "value": "S"}]}, {"molecule": "[H]/N=C(/N)N[C@H]1[C@H](O)[C@@H](O)[C@H](O[C@@H]2O[C@@H](C)[C@](O)(C=O)[C@H]2O[C@@H]2O[C@@H](CO)[C@H](O)[C@@H](O)[C@@H]2NC)[C@@H](N/C(N)=N\\[H])[C@@H]1O", "note": "[Streptomycin]", "values": [{"measurement": "Activity (resistant/susceptible)", "setting": "[1]; strain 176949/08, 0.25 μg/ml", "value": "S"}, {"measurement": "Activity (resistant/susceptible)", "setting": "[1]; strain 176949/08, 1 μg/ml", "value": "S"}, {"measurement": "Activity (resistant/susceptible)", "setting": "[1]; strain 176949/08, 4 μg/ml", "value": "S"}, {"measurement": "Activity (resistant/susceptible)", "setting": "[1]; strain 177581/08, 0.25 μg/ml", "value": "S"}, {"measurement": "Activity (resistant/susceptible)", "setting": "[1]; strain 177581/08, 1 μg/ml", "value": "S"}, {"measurement": "Activity (resistant/susceptible)", "setting": "[1]; strain 177581/08, 4 μg/ml", "value": "S"}, {"measurement": "Activity (resistant/susceptible)", "setting": "[1]; strain 177958/08, 0.25 μg/ml", "value": "R"}, {"measurement": "Activity (resistant/susceptible)", "setting": "[1]; strain 177958/08, 1 μg/ml", "value": "S"}, {"measurement": "Activity (resistant/susceptible)", "setting": "[1]; strain 177958/08, 4 μg/ml", "value": "S"}, {"measurement": "Activity (resistant/susceptible)", "setting": "[1]; strain 178331/08, 0.25 μg/ml", "value": "R"}, {"measurement": "Activity (resistant/susceptible)", "setting": "[1]; strain 178331/08, 1 μg/ml", "value": "S"}, {"measurement": "Activity (resistant/susceptible)", "setting": "[1]; strain 178331/08, 4 μg/ml", "value": "S"}, {"measurement": "Activity (resistant/susceptible)", "setting": "[1]; strain 178557/08, 0.25 μg/ml", "value": "R"}, {"measurement": "Activity (resistant/susceptible)", "setting": "[1]; strain 178557/08, 1 μg/ml", "value": "S"}, {"measurement": "Activity (resistant/susceptible)", "setting": "[1]; strain 178557/08, 4 μg/ml", "value": "S"}]}]}
